One sequence from patent US20130183237A1 (priority 2007, published 2013) can be followed below.

This test deals with thrombin (Homo sapiens, UniProt P00734). The following applies: fibrinogen 3 mg/ml, thrombin 20 nM, 37° C., no pre-incubation, dose-dependent.

Method: 200 μl of fibrinogen (final concentration 3 mg/ml) were incubated with 100 μl of peptides (various concentrations) at 37° C. Clotting of fibrinogen was initiated by the addition of 100 μl of thrombin (final concentration 20 nM). All reagents and samples were dissolved in 50 mM Tris buffer (pH 7.4) containing 100 mM NaCl.

Consider APPFDFEAIPEEYLDDES [AP18], for which the fibrinogen clotting time result is on record as “prolonged”.
